Data reported in patent publication US9170257B2 (priority 2012, dated 2015).
Read-outs that look alike come from different tables or passages of the source.

Key:
[1] = Bench stability in Phase 1 human plasma samples; assay type: in vitro ADME; conditions: human plasma with Na-phosphate, room temperature, a couple of hours
Experimental: After the addition of 50 μl 5% H3PO4 to 950 ml plasma the pH was 4.4.

[2] = Tissue distribution of curcumin and THC at necropsy 15 minutes post-infusion; set-up: species or system Beagle dogs; conditions: for Plasma concentration used to calculate Kp: average of end of infusion and 15 minutes post infusion; for concentration at 15 min / Kp at 2 h / Kp at 8 h: both sexes, dog, in vivo, 10 mg/kg; for Kp at 2 h: 2 hr infusion; for Kp at 2 h / Kp at 8 h: H3PO4 stabilized; for Kp at 8 h: 8 hr infusion
Experimental: The test article will be administered to 8 Beagle dogs by intravenous infusion over two hours (Part A) or eight hours (Part B) as shown in Table 6.
Multiple samples of tissue weighing approximately 1 gram were removed and snap frozen in the presence or absence of phosphoric acid (H3PO4). For all tissue samples, the levels of curcumin and THC were determined using a method developed by the Bioanalytical Department at Nucro-Technics. […] Values that were below the limit of quantification were assigned a value of 0. […] Tissue distribution data was analyzed using, unless stated, the data from 4 dogs and are presented as the mean±standard error (S.E.).

[3] = beagle, read-out: Kp [tissue]/[plasma], Brain Stem
[4] = beagle, read-out: Kp [tissue]/[plasma], Cortex, Brain
[5] = beagle, read-out: Kp [tissue]/[plasma], Hippocampus
[6] = beagle, read-out: Kp [tissue]/[plasma], Kidney
[7] = beagle, read-out: Kp [tissue]/[plasma], Liver
[8] = beagle, read-out: Kp [tissue]/[plasma], Lungs
[9] = beagle, read-out: Kp [tissue]/[plasma], Muscle
[10] = beagle, read-out: Kp [tissue]/[plasma], Pancreas

COc1cc(CCC(=O)CC(=O)CCc2ccc(O)c(OC)c2)ccc1O [THC, tetrahydrocurcumin]
bench stability [1]: minimal
Tissue level, Liver ([2]; 2 hour infusion, Plus H3PO4): 0.45 ng/g
Tissue level, Lungs ([2]; 2 hour infusion, Plus H3PO4): 2.14 ng/g
Plasma concentration used to calculate Kp ([2]; 2 hours infusion): 810.9 ng/mL
Tissue level, Lungs ([2]; 8 hour infusion, Plus H3PO4): 6.36 ng/g
Plasma concentration used to calculate Kp ([2]; 8 hours infusion): 104.5 ng/mL
concentration at 15 min ([2]; Beagle, 2 hour infusion, No H3PO4, read-out: Tissue level, Brain Stem): 2.34 ng/g
concentration at 15 min ([2]; beagle, 2 hour infusion, No H3PO4, read-out: Tissue level, Cortex, Brain): 0.68 ng/g
concentration at 15 min ([2]; beagle, 2 hour infusion, No H3PO4, read-out: Tissue level, Heart): 2.51 ng/g
concentration at 15 min ([2]; beagle, 2 hour infusion, No H3PO4, read-out: Tissue level, Hippocampus): 0.75 ng/g
concentration at 15 min ([2]; beagle, 2 hour infusion, No H3PO4, read-out: Tissue level, Kidney): 3.06 ng/g
concentration at 15 min ([2]; beagle, 2 hour infusion, No H3PO4, read-out: Tissue level, Liver): 1.9 ng/g
concentration at 15 min ([2]; beagle, 2 hour infusion, No H3PO4, read-out: Tissue level, Lungs): 25 ng/g
concentration at 15 min ([2]; beagle, 2 hour infusion, No H3PO4, read-out: Tissue level, Muscle): 5.26 ng/g
concentration at 15 min ([2]; beagle, 2 hour infusion, No H3PO4, read-out: Tissue level, Pancreas): 2.02 ng/g
concentration at 15 min ([2]; beagle, 2 hour infusion, No H3PO4, read-out: Tissue level, Striatum): 6.22 ng/g
concentration at 15 min ([2]; beagle, 2 hour infusion, No H3PO4, read-out: Tissue level, Urinary Bladder): 0.84 ng/g
concentration at 15 min ([2]; beagle, 2 hour infusion, Plus H3PO4, read-out: Tissue level, Brain Stem): 10.6 ng/g
concentration at 15 min ([2]; beagle, 2 hour infusion, Plus H3PO4, read-out: Tissue level, Cortex, Brain): 3.08 ng/g
concentration at 15 min ([2]; beagle, 2 hour infusion, Plus H3PO4, read-out: Tissue level, Heart): 0.69 ng/g
concentration at 15 min ([2]; beagle, 2 hour infusion, Plus H3PO4, read-out: Tissue level, Hippocampus): 6.46 ng/g
concentration at 15 min ([2]; beagle, 2 hour infusion, Plus H3PO4, read-out: Tissue level, Kidney): 4.25 ng/g
concentration at 15 min ([2]; beagle, 2 hour infusion, Plus H3PO4, read-out: Tissue level, Muscle): 4.19 ng/g
concentration at 15 min ([2]; beagle, 2 hour infusion, Plus H3PO4, read-out: Tissue level, Pancreas): 0.92 ng/g
concentration at 15 min ([2]; beagle, 2 hour infusion, Plus H3PO4, read-out: Tissue level, Striatum): 11.1 ng/g
concentration at 15 min ([2]; beagle, 2 hour infusion, Plus H3PO4, read-out: Tissue level, Urinary Bladder): 0.87 ng/g
Kp at 2 h [2, 3]: 0.0037
Kp at 2 h [2, 4]: 0.0006
Kp at 2 h [2, 5]: 0.0014
Kp at 2 h [2, 6]: 0.0025
Kp at 2 h [2, 7]: 0.0028
Kp at 2 h [2, 8]: 0.0078
Kp at 2 h [2, 9]: 0.0011
Kp at 2 h [2, 10]: 0.0017
Kp at 2 h ([2]; beagle, read-out: Kp [tissue]/[plasma], Striatum): 0.0039
Kp at 2 h ([2]; beagle, read-out: Kp [tissue]/[plasma], Urinary Bladder): 0.0014
concentration at 15 min ([2]; beagle, 8 hour infusion, No H3PO4, read-out: Tissue level, Brain Stem): 0.83 ng/g
concentration at 15 min ([2]; beagle, 8 hour infusion, No H3PO4, read-out: Tissue level, Cortex, Brain): 0.06 ng/g
concentration at 15 min ([2]; beagle, 8 hour infusion, No H3PO4, read-out: Tissue level, Heart): 0.51 ng/g
concentration at 15 min ([2]; beagle, 8 hour infusion, No H3PO4, read-out: Tissue level, Hippocampus): 0.01 ng/g
concentration at 15 min ([2]; beagle, 8 hour infusion, No H3PO4, read-out: Tissue level, Kidney): 1.32 ng/g
concentration at 15 min ([2]; beagle, 8 hour infusion, No H3PO4, read-out: Tissue level, Liver): 2.63 ng/g
concentration at 15 min ([2]; beagle, 8 hour infusion, No H3PO4, read-out: Tissue level, Lungs): 10.8 ng/g
concentration at 15 min ([2]; beagle, 8 hour infusion, No H3PO4, read-out: Tissue level, Muscle): 0.38 ng/g
concentration at 15 min ([2]; beagle, 8 hour infusion, No H3PO4, read-out: Tissue level, Pancreas): 0.34 ng/g
concentration at 15 min ([2]; beagle, 8 hour infusion, No H3PO4, read-out: Tissue level, Striatum): 1.12 ng/g
concentration at 15 min ([2]; beagle, 8 hour infusion, No H3PO4, read-out: Tissue level, Urinary Bladder): 1.37 ng/g
concentration at 15 min ([2]; beagle, 8 hour infusion, Plus H3PO4, read-out: Tissue level, Brain Stem): 3.02 ng/g
concentration at 15 min ([2]; beagle, 8 hour infusion, Plus H3PO4, read-out: Tissue level, Cortex, Brain): 0.49 ng/g
concentration at 15 min ([2]; beagle, 8 hour infusion, Plus H3PO4, read-out: Tissue level, Heart): 0.03 ng/g
concentration at 15 min ([2]; beagle, 8 hour infusion, Plus H3PO4, read-out: Tissue level, Hippocampus): 1.13 ng/g
concentration at 15 min ([2]; beagle, 8 hour infusion, Plus H3PO4, read-out: Tissue level, Kidney): 2.04 ng/g
concentration at 15 min ([2]; beagle, 8 hour infusion, Plus H3PO4, read-out: Tissue level, Liver): 2.25 ng/g
concentration at 15 min ([2]; beagle, 8 hour infusion, Plus H3PO4, read-out: Tissue level, Muscle): 0.93 ng/g
concentration at 15 min ([2]; beagle, 8 hour infusion, Plus H3PO4, read-out: Tissue level, Pancreas): 1.34 ng/g
concentration at 15 min ([2]; beagle, 8 hour infusion, Plus H3PO4, read-out: Tissue level, Striatum): 3.14 ng/g
concentration at 15 min ([2]; beagle, 8 hour infusion, Plus H3PO4, read-out: Tissue level, Urinary Bladder): 1.11 ng/g
Kp at 8 h [2, 3]: 0.0289
Kp at 8 h [2, 4]: 0.0047
Kp at 8 h ([2]; beagle, read-out: Kp [tissue]/[plasma], Heart): 0.0003
Kp at 8 h [2, 5]: 0.0108
Kp at 8 h [2, 6]: 0.0195
Kp at 8 h [2, 7]: 0.0215
Kp at 8 h [2, 8]: 0.0609
Kp at 8 h [2, 9]: 0.0089
Kp at 8 h [2, 10]: 0.0128
